PubChem BioAssay AID2060621 (Molecular Pharmacology Branch, DTP, NCI, 2025)
One block for each compound: values may come before it.

Test system: 324938-238-R-J1-PDC complex spheroids viability
Assay: Anticancer human tumor 324938-238-R-J1-PDC patient-derived bladder carcinoma cell line growth inhibition [CLK]
Conditions: for IC50: curve of first compound; for viability, T/C: stronger effect = lower value
Method in brief: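 Patient-derived tumor cells grown as complex spheroids with HUVEC endothelial cells and mesenchymal stem cells, treated with drug combinations. Concentrations descend in half-log steps from near clinical Cmax, or from 10 microM if Cmax unknown.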

[1] = second compound 0.0316 µM, first compound 0.0316 µM
[2] = second compound 0.0316 µM, first compound 0.1 µM
[3] = second compound 0.0316 µM, first compound 0.316 µM
[4] = second compound 0.0316 µM, first compound 1 µM
[5] = second compound 0.0316 µM, first compound 3.16 µM
[6] = second compound 0.0316 µM, first compound 10 µM
[7] = second compound 0.1 µM, first compound 0.0316 µM
[8] = second compound 0.1 µM, first compound 0.1 µM
[9] = second compound 0.1 µM, first compound 0.316 µM
[10] = second compound 0.1 µM, first compound 1 µM
[11] = second compound 0.1 µM, first compound 3.16 µM
[12] = second compound 0.1 µM, first compound 10 µM
[13] = second compound 0.316 µM, first compound 0.0316 µM
[14] = second compound 0.316 µM, first compound 0.1 µM
[15] = second compound 0.316 µM, first compound 0.316 µM
[16] = second compound 0.316 µM, first compound 1 µM
[17] = second compound 0.316 µM, first compound 3.16 µM
[18] = second compound 0.316 µM, first compound 10 µM
[19] = second compound 1 µM, first compound 0.0316 µM
[20] = second compound 1 µM, first compound 0.1 µM
[21] = second compound 1 µM, first compound 0.316 µM
[22] = second compound 1 µM, first compound 1 µM
[23] = second compound 1 µM, first compound 3.16 µM
[24] = second compound 1 µM, first compound 10 µM
[25] = second compound 3.16 µM, first compound 0.0316 µM
[26] = second compound 3.16 µM, first compound 0.1 µM
[27] = second compound 3.16 µM, first compound 0.316 µM
[28] = second compound 3.16 µM, first compound 1 µM
[29] = second compound 3.16 µM, first compound 3.16 µM
[30] = second compound 3.16 µM, first compound 10 µM
[31] = second compound 10 µM, first compound 0.0316 µM
[32] = second compound 10 µM, first compound 0.1 µM
[33] = second compound 10 µM, first compound 0.316 µM
[34] = second compound 10 µM, first compound 1 µM
[35] = second compound 10 µM, first compound 3.16 µM
[36] = second compound 10 µM, first compound 10 µM
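Note: viability read after seven days of drug exposure.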
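Throughout, for viability, T/C: 100% = DMSO vehicle control wells.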

IC50 (second compound 0.0316 µM): > 10000 nM
IC50 (second compound 0.1 µM): < 31.6 nM
IC50 (second compound 0.316 µM): < 31.6 nM
IC50 (second compound 1 µM): < 31.6 nM
IC50 (second compound 3.16 µM): < 31.6 nM
IC50 (second compound 10 µM): < 31.6 nM
SMILES: C=CC(=O)N1CCN(c2nc(=O)n(-c3c(C)ccnc3C(C)C)c3nc(-c4c(O)cccc4F)c(F)cc23)C(C)C1 (stereo unspecified) + CNC(=O)c1ccc(Nc2nc(OC3CCCC3)c3c(-c4ccc5nc(C)oc5c4)c[nH]c3n2)c(OC)c1
viability, T/C [1]: 92.7%
viability, T/C [2]: 95.3%
viability, T/C [3]: 96.2%
viability, T/C [4]: 102%
viability, T/C [5]: 88.8%
viability, T/C [6]: 81.4%
viability, T/C [7]: 32.6%
viability, T/C [8]: 30.8%
viability, T/C [9]: 27.9%
viability, T/C [10]: 35.1%
viability, T/C [11]: 33.5%
viability, T/C [12]: 31.6%
viability, T/C [13]: 20.4%
viability, T/C [14]: 17.4%
viability, T/C [15]: 20.7%
viability, T/C [16]: 20.4%
viability, T/C [17]: 23.9%
viability, T/C [18]: 27.4%
viability, T/C [19]: 15.3%
viability, T/C [20]: 16.1%
viability, T/C [21]: 16.5%
viability, T/C [22]: 19.3%
viability, T/C [23]: 20.5%
viability, T/C [24]: 21.5%
viability, T/C [25]: 18.3%
viability, T/C [26]: 18.4%
viability, T/C [27]: 20.4%
viability, T/C [28]: 18.8%
viability, T/C [29]: 23.7%
viability, T/C [30]: 25.5%
viability, T/C [31]: 19.4%
viability, T/C [32]: 15.6%
viability, T/C [33]: 18.5%
viability, T/C [34]: 21%
viability, T/C [35]: 25.5%
viability, T/C [36]: 25.7%

IC50 (second compound 0.0316 µM): > 10000 nM
IC50 (second compound 0.1 µM): < 31.6 nM
IC50 (second compound 0.316 µM): < 31.6 nM
IC50 (second compound 1 µM): < 31.6 nM
IC50 (second compound 3.16 µM): < 31.6 nM
IC50 (second compound 10 µM): < 31.6 nM
SMILES: CC(CO)NC(=O)c1cc(-c2ccc(Cl)cc2)nn(-c2cnn(C)c2)c1=O (stereo unspecified) + CNC(=O)c1ccc(Nc2nc(OC3CCCC3)c3c(-c4ccc5nc(C)oc5c4)c[nH]c3n2)c(OC)c1
viability, T/C [1]: 82.2%
viability, T/C [2]: 90.3%
viability, T/C [3]: 89.1%
viability, T/C [4]: 81.1%
viability, T/C [5]: 66.1%
viability, T/C [6]: 50.6%
viability, T/C [7]: 28.9%
viability, T/C [8]: 33.2%
viability, T/C [9]: 34.6%
viability, T/C [10]: 35%
viability, T/C [11]: 29.4%
viability, T/C [12]: 28%
viability, T/C [13]: 19%
viability, T/C [14]: 19.3%
viability, T/C [15]: 21.6%
viability, T/C [16]: 18.7%
viability, T/C [17]: 19.1%
viability, T/C [18]: 21.1%
viability, T/C [19]: 16.4%
viability, T/C [20]: 16%
viability, T/C [21]: 15.9%
viability, T/C [22]: 16.9%
viability, T/C [23]: 18.4%
viability, T/C [24]: 18.6%
viability, T/C [25]: 15.9%
viability, T/C [26]: 15.5%
viability, T/C [27]: 15.1%
viability, T/C [28]: 16.2%
viability, T/C [29]: 18.1%
viability, T/C [30]: 17.6%
viability, T/C [31]: 17.3%
viability, T/C [32]: 16.3%
viability, T/C [33]: 15.2%
viability, T/C [34]: 16.5%
viability, T/C [35]: 17%
viability, T/C [36]: 15.6%

IC50 (second compound 0.0316 µM): 21.5 nM
IC50 (second compound 0.1 µM): < 3.16 nM
IC50 (second compound 0.316 µM): < 3.16 nM
IC50 (second compound 1 µM): < 3.16 nM
IC50 (second compound 3.16 µM): < 3.16 nM
IC50 (second compound 10 µM): < 3.16 nM
SMILES: COc1c(OCCCN2CCOCC2)ccc2c3n(c(=NC(=O)c4cnc(N)nc4)nc12)CCN3 + CNC(=O)c1ccc(Nc2nc(OC3CCCC3)c3c(-c4ccc5nc(C)oc5c4)c[nH]c3n2)c(OC)c1
viability, T/C (second compound 0.0316 µM, first compound 0.00316 µM): 72.8%
viability, T/C (second compound 0.0316 µM, first compound 0.01 µM): 66.1%
viability, T/C [1]: 41.3%
viability, T/C [2]: 19.4%
viability, T/C [3]: 7.32%
viability, T/C [4]: 0.92%
viability, T/C (second compound 0.1 µM, first compound 0.00316 µM): 36.3%
viability, T/C (second compound 0.1 µM, first compound 0.01 µM): 34.7%
viability, T/C [7]: 32.4%
viability, T/C [8]: 19.4%
viability, T/C [9]: 6.56%
viability, T/C [10]: 1.65%
viability, T/C (second compound 0.316 µM, first compound 0.00316 µM): 15.5%
viability, T/C (second compound 0.316 µM, first compound 0.01 µM): 12.7%
viability, T/C [13]: 10.2%
viability, T/C [14]: 4.98%
viability, T/C [15]: 2.15%
viability, T/C [16]: 0.5%
viability, T/C (second compound 1 µM, first compound 0.00316 µM): 15.6%
viability, T/C (second compound 1 µM, first compound 0.01 µM): 12.1%
viability, T/C [19]: 6.92%
viability, T/C [20]: 4.04%
viability, T/C [21]: 1.17%
viability, T/C [22]: 0.45%
viability, T/C (second compound 3.16 µM, first compound 0.00316 µM): 15.5%
viability, T/C (second compound 3.16 µM, first compound 0.01 µM): 12.8%
viability, T/C [25]: 8.33%
viability, T/C [26]: 3.11%
viability, T/C [27]: 0.87%
viability, T/C [28]: 0.39%
viability, T/C (second compound 10 µM, first compound 0.00316 µM): 14.3%
viability, T/C (second compound 10 µM, first compound 0.01 µM): 10.3%
viability, T/C [31]: 6.72%
viability, T/C [32]: 3.94%
viability, T/C [33]: 1.19%
viability, T/C [34]: 0.48%
